Literature values as cited in patent US8153661B2, “Controlled delivery system” (Durect Corporation, priority 2004, dated 2012).

For `CCCCN1CCCCC1C(=O)Nc1c(C)cccc1C` (stereo not shown) [bupivacaine], the “published estimated toxic plasma concentration ranges” value is given as 1 to 4 µg/mL.
